Test [1] has as its target T1, Ubiquitin-conjugating enzyme E2 N (Homo sapiens, UniProt P61088).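 Further: Dose-response confirmation in a TR-FRET assay detecting UBC13-driven polyubiquitin chain formation, inhibition measured.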
T1 sequence (P61088 whole entry): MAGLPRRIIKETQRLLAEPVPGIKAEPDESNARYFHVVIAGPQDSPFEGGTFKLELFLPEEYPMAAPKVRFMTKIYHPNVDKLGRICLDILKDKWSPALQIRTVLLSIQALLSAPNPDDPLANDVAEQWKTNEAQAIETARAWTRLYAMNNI
It counts as functional.

In a further test the target is Cytochrome P450 3A4 (Homo sapiens, UniProt P08684). The following applies: Potency.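 Further: confirmatory qHTS run detecting inhibitors and substrates of CYP3A4.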
Sequence of Cytochrome P450 3A4 (P08684 whole entry): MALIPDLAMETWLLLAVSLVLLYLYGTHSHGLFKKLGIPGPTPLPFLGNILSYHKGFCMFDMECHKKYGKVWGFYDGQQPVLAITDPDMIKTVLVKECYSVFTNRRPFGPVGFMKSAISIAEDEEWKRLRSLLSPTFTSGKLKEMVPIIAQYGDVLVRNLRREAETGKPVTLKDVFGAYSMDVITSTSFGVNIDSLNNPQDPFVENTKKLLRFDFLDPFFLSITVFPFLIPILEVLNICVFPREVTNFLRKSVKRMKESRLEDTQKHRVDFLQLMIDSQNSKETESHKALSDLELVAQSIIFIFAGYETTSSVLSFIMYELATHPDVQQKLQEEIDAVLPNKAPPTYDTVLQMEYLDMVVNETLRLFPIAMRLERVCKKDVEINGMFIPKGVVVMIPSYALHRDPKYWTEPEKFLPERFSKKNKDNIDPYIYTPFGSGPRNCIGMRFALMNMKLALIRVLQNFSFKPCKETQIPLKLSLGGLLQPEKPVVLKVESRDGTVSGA
The next test deals with T2, Aminopeptidase N (Plasmodium falciparum FcB1/Columbia, UniProt O96935).
T2 sequence (O96935 whole entry): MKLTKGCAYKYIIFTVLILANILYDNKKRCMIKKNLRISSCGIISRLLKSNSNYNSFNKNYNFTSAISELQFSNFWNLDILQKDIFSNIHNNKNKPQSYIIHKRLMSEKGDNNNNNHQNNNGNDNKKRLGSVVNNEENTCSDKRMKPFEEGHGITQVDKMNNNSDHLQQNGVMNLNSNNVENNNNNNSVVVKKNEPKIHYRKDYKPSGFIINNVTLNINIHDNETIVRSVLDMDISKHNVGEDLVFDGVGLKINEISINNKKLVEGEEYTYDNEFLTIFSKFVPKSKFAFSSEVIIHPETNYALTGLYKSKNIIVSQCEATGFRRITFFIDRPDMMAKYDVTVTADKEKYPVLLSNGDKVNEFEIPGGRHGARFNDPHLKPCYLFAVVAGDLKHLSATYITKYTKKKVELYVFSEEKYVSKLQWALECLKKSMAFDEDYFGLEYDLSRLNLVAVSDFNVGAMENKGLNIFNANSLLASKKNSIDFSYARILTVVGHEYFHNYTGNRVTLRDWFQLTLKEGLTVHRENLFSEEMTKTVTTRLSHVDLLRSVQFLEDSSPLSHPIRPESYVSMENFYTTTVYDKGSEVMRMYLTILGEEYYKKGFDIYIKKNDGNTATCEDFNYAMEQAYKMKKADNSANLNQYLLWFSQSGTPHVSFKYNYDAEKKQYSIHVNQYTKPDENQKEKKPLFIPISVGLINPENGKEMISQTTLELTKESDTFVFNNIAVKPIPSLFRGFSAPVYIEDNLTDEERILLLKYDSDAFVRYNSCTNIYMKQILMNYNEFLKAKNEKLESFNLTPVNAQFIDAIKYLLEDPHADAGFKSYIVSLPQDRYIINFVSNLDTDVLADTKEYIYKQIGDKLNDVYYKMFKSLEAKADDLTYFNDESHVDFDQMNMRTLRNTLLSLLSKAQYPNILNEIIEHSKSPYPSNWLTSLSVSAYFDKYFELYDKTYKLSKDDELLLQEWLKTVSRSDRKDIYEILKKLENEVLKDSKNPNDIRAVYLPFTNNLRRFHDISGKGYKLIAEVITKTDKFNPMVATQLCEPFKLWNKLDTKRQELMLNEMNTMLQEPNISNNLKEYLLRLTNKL
Kind of test: P. falciparum M1AAP inhibitors, biochemical, fluorogenic H-Leu-NHMec substrate, 1536-well (AID 1445). Details: species or system Plasmodium falciparum 3D7, 3D7.

In the next test the target is T3, Protein RecA (Mycobacterium tuberculosis, UniProt P9WHJ3).
T3 sequence (P9WHJ3 whole entry): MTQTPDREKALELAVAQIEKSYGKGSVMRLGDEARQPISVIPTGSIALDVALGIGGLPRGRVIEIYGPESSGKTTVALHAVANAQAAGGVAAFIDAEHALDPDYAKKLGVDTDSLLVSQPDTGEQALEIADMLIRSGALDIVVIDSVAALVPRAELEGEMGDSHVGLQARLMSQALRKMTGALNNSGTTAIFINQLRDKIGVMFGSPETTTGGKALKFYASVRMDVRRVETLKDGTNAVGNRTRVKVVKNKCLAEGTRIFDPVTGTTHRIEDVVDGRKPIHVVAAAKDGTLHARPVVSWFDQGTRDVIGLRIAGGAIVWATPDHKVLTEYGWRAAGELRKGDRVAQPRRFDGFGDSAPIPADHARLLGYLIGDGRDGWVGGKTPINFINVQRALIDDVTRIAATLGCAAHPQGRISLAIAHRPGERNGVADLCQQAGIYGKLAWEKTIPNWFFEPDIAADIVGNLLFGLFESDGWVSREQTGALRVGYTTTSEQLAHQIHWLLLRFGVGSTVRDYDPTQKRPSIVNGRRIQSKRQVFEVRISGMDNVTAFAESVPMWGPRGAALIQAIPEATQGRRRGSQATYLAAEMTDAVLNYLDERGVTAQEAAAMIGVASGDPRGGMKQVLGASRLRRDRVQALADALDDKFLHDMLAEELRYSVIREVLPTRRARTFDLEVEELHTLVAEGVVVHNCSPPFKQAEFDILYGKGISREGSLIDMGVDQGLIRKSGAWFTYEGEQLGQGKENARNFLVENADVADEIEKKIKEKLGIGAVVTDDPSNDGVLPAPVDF
Briefly: Fluorescence Cell-Free Homogeneous Dose Retest to Identify Inhibitors of RecA-Intein Splicing Activity. [Related pubchem assays (depositor defined):AID2097, AID2223, AID489010, AID492950]. It counts as functional.

Test [2] has as its target T4, Replicative DNA helicase DnaB (Mycobacterium tuberculosis, UniProt P9WMR3).
T4 sequence (P9WMR3 whole entry): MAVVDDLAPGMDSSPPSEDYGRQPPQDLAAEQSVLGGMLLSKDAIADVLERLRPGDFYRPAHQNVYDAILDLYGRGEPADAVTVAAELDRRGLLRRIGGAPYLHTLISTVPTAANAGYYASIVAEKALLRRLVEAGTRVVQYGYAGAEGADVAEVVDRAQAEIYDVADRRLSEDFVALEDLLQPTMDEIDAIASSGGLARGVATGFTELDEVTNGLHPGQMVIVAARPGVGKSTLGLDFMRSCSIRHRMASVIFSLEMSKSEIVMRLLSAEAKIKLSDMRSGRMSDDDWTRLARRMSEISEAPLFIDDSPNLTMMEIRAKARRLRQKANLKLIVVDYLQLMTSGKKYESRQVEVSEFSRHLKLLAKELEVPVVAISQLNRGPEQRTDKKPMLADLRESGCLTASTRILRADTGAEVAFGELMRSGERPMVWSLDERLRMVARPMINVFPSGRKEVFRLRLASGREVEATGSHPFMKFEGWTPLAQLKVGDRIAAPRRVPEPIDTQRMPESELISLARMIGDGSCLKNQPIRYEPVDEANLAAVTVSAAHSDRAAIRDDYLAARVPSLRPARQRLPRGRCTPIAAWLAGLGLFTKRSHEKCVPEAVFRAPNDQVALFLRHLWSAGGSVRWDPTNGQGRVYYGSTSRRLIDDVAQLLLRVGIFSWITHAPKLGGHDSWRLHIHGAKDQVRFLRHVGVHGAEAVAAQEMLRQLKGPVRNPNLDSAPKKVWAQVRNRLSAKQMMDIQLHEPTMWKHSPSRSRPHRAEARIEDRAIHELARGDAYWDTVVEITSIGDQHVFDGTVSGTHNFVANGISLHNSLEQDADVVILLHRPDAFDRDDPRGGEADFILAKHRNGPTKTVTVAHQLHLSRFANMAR
Kind of test: DnaB intein splicing inhibitors, dose response, biochemical, cell-free fluorescence (AID 449749). The format is functional.

Test [3] can be described thus: inhibitors of clade B AD8 Env fusion, dose response, cell-based, cherry-pick (AID 652062).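 Further: luciferase signal from cell-cell fusion driven by HIV-1 clade B AD8 Env; potency is for inhibitors of fusion seen as a drop in luminescence.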 It counts as functional.
A short description of test [4]: inhibitors of HIV Env-driven cell fusion, dose response, cherry-pick (AID 652057). The format is functional, cell-based.
The nature of test [5]: CEM21 lymphoblast cell cytotoxicity, dose response, cytotoxicity control for viral fusion inhibitor project, CellTiter-Glo luminescence, cherry-picked (AID 652042).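 Further: potency for signal decrease meaning cytotoxicity.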 The format is functional, cell-based. In general terms: Cellular ATP, detected with luciferase, serves as a proxy for viable cell number.
Test [6] has as its target Voltage-dependent T-type calcium channel subunit alpha-1H (Homo sapiens, UniProt O95180). It counts as functional.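 Further: channel activity triggered by adding a high calcium stimulation buffer.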
For test [7], the system named is HEK293. Briefly: NOD1 signaling inhibitors, primary screen, cell-based, luminescence, uHTS (AID 1578). It counts as functional. The following applies: Homo sapiens.
Test [8] relates to HEK293. Kind of test: NOD2 signaling inhibitors in MDP-stimulated cells, cell-based, uHTS, luminescence (AID 2001). It counts as functional. To be noted: Homo sapiens.
The subject of test [9] is HEK293. Briefly: cells. The format is functional, cell-based. The following applies: Homo sapiens.
Test [10] concerns HEK293. Kind of test: cells. The format is functional, cell-based. To be noted: Homo sapiens. The source holds these as a separate data set.
The nature of test [11]: THP-1 cell cytotoxicity, dose response, cytotoxicity control for non-replicating M. tuberculosis project (AID 489025). It counts as functional.
The nature of another test: cells. It counts as functional.
Test [12] in a line: HepG2 cell cytotoxicity, dose response, cytotoxicity control for non-replicating M. tuberculosis project (AID 489018). The format is functional. The following applies: Mycobacterium tuberculosis.
The target in test [13] is T5, Alkaline phosphatase, tissue-nonspecific isozyme (Homo sapiens, UniProt P05186).
T5 sequence (P05186 whole entry): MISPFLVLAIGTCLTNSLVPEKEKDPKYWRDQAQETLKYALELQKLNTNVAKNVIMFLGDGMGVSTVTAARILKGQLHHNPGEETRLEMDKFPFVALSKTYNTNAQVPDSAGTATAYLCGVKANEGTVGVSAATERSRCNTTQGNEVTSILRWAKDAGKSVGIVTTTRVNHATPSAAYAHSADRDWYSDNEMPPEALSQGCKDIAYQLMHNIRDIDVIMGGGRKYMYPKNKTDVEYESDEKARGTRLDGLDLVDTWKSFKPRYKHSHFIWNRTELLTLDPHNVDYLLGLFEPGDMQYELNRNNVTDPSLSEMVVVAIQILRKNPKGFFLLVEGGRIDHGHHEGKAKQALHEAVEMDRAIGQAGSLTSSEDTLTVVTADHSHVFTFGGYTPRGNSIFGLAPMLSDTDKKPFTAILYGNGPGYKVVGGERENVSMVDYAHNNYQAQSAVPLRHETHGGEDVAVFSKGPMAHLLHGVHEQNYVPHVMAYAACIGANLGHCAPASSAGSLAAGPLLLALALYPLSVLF
Kind of test: human TNAP enzyme inhibitors, SAR follow-up, biochemical, luminescent, dose response (AID 1056).

Test [14] has as its target Glyceraldehyde-3-phosphate dehydrogenase (Homo sapiens, UniProt P04406).

Calls of active or inactive are those of the source.

The IC50 is the concentration at which inhibition is half-maximal. The term AC50 denotes the concentration at which the activity in the assay is half-maximal. In general, EC50 refers to the midpoint of the concentration-response curve. Broadly, the CC50 is the concentration that lowers cell viability or growth by half.

Sequence of Voltage-dependent T-type calcium channel subunit alpha-1H (O95180 whole entry): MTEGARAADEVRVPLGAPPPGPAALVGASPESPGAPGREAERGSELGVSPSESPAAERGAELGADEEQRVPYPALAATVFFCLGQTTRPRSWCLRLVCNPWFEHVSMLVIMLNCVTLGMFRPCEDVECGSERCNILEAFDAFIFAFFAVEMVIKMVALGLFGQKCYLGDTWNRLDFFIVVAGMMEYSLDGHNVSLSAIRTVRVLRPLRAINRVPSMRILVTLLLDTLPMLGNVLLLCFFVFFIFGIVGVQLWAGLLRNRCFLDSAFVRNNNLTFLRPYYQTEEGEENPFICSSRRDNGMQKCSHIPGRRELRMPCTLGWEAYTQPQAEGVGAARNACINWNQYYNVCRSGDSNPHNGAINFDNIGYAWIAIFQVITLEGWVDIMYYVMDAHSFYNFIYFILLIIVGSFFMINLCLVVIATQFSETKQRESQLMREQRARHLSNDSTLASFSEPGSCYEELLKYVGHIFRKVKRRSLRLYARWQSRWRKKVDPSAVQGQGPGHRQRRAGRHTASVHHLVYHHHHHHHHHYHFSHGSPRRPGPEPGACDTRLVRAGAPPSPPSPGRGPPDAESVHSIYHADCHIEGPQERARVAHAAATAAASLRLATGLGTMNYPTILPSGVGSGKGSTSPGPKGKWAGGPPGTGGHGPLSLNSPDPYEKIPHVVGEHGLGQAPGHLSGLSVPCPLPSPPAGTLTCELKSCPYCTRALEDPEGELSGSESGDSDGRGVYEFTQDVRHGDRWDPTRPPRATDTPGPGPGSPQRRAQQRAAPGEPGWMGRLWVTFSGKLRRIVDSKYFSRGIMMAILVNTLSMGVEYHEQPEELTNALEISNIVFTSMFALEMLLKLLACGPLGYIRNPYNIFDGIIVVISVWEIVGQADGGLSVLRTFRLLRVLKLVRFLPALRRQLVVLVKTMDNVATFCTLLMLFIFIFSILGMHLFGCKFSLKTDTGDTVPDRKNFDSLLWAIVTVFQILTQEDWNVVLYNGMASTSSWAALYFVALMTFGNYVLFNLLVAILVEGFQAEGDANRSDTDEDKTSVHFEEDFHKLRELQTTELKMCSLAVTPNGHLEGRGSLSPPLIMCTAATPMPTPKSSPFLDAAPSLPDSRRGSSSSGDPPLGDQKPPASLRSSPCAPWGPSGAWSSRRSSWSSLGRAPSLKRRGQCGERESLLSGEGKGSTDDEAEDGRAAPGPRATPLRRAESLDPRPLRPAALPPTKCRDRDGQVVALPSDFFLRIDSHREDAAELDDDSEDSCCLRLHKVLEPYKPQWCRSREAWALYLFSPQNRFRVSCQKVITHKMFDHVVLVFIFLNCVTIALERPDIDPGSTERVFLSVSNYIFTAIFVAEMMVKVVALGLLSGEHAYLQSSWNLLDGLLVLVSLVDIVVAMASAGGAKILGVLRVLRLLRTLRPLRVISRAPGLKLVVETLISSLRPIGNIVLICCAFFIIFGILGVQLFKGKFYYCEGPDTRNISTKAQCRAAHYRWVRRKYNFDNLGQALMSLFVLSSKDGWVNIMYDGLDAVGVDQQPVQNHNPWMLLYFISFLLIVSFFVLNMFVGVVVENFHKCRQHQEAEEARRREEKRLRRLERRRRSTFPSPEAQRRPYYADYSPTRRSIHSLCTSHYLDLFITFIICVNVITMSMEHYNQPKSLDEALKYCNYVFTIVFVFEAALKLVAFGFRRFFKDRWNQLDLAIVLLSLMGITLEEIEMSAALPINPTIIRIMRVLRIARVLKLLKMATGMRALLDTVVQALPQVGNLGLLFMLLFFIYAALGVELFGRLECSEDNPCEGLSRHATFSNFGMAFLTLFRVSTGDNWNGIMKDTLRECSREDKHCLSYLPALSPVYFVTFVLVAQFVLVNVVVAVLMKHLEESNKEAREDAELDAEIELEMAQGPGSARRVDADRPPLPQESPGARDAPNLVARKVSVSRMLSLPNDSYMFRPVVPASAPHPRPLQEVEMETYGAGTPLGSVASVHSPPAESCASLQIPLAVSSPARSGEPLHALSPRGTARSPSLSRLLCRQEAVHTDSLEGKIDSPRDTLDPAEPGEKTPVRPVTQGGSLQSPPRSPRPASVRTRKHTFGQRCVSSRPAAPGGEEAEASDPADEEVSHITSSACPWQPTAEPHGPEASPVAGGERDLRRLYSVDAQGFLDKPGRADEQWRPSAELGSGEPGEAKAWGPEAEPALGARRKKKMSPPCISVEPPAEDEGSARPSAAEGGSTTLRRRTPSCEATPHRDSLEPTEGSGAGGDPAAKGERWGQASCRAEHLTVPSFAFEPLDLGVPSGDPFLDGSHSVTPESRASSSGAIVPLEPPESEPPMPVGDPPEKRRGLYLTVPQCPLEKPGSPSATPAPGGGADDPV
Sequence of Glyceraldehyde-3-phosphate dehydrogenase (P04406 whole entry): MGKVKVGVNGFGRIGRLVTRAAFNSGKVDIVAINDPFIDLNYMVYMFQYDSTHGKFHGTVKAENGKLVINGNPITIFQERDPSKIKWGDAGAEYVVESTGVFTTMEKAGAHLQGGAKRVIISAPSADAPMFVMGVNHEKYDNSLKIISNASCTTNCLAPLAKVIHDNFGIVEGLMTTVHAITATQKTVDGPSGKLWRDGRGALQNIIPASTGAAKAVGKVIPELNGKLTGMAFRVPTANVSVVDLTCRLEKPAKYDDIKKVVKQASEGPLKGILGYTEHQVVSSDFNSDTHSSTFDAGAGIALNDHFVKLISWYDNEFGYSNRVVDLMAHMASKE

Consider `COc1ccc(-c2csc(NC(C)c3nc4cc(C(=O)NCCCO)ccc4n3Cc3ccc(C)cc3)n2)cc1` (centres undefined), for which the IC50 in test [1] was > 20 µM (inactive).

With `COc1cc(/C=C/C(=O)c2cccs2)cc(OC)c1OC`, at Cytochrome P450 3A4, the half-maximal activity concentration (AC50) was 3.16 µM (inconclusive).

Regarding `COc1ccc(C[C@H]2CN3C(=NC[C@@H]3Cc3ccc(O)cc3)N2C[C@H](C)NC(=O)c2ccc(C)c(Br)c2)cc1`, in test [1], the IC50 is > 20 µM (inactive).

As to `COc1cc(Br)c(C2C(C#N)=C(N)Oc3[nH]nc(-c4cccnc4)c32)cc1OC` (centres undefined), the half-inhibitory concentration (IC50) at Aminopeptidase N was 44.6 µM (active). For the same compound, the concentration giving a half-maximal response (EC50) at Protein RecA was 8.6 µM (active). Further, the AC50 in test [2] is 35 µM (active).

As for `Cc1cccc(N2CCN(C(=O)CCCSc3nc4ccccc4[nH]3)CC2)c1C`, the concentration at half-maximal activity (AC50) is 12.3 µM (active) in test [3], 46.1 µM (active) in [4] and 50.8 µM (active) in [5]. In addition, in [6], the EC50 was 5.23 µM (active).

Regarding `CN(C(=O)C(C)(C)C)c1ccc(OCC(=O)N2CCc3ccccc3C2)cc1`, the 50% effective concentration (EC50) in the test on HEK293 [7] is 4.6 µM (active). Besides, the IC50 with HEK293 [8] was 18.1 µM (inactive); in the test with HEK293 [9], 12.9 µM (active); in the test with HEK293 [10] it was > 20 µM (inactive).

As for `CC(/C=C/c1ccco1)=N\NC(=O)c1cccc(Cl)c1`, the CC50 in test [11] is > 40 µM (active); in test [12], > 20 µM (active). For the same compound, the IC50 in the test “cells” was 6.09 µM (active).

With `COc1ccc(-c2csc(NC(=O)C3=NN(c4ccccc4)C(=O)CC3)n2)cc1`, the EC50 with HEK293 [7] is 15.7 µM (active). Moreover, the IC50 with HEK293 [8] is 5.67 µM (inactive); with HEK293 [9], 5.51 µM (active); in the test with HEK293 [10] it was 17.5 µM (active).

As for `CCCN1[C@@H]2C[C@@H](O)CC[C@@H]2C[C@H]1C(=O)OC`, the concentration at half-maximal activity (AC50) at Cytochrome P450 3A4 was 25.1 µM (inconclusive).

For `Cc1ccc(-n2ncc(C(=O)NCc3ccc4c(c3)OCO4)c2NC(=O)c2ccco2)cc1C`, the concentration giving a half-maximal response (EC50) in test [6] is 1.89 µM (active).

In the case of `c1ccc(-c2cc3c(nc2-c2ccccc2)CCNC3)cc1`, the AC50 on Cytochrome P450 3A4 is 5.01 µM (inconclusive).

In the case of `C=CCc1ccc(OCC(O)COc2ccc(CC=C)cc2OC)c(OC)c1`, the EC50 in test [6] was 6.12 µM (active).

`COc1ccc(S(=O)(=O)Nc2cccnc2)cc1OC`: the IC50 was > 100 µM (inactive) in test [13] and > 100 µM (not active) in test [14].

For the compound `Cc1ccc(-c2cc(C(=O)O)[nH]n2)cc1`, the values for the concentration for half-maximal inhibition (IC50) in [13] and in test [14] were 8.71 µM (active) and > 100 µM (not active), respectively.

Values taken from ChEMBL document CHEMBL1201862, “PubChem BioAssay data set” (2004).
